Experimental findings from patent EP4108244A1, “SS-LACTAM ANTIBIOTIC WITH SIGNIFICANT ACTIVITY AGAINST CANCER E.G. COLON MALIGNANCIES” (priority 2021, dated 2022) are described below.

Where “and” joins values, the source holds several entries; their conditions need not be identical. Identical values can stand only once. Marks after values point to notes of the source that are not given here.

The test system of data set [1] is HCT-116 cells. Description: MTT metabolic activity assay. In kind it is cell-based, human. Particulars: for effect of combination with 5-FU on the inhibition of metabolic activity induced by 5-FU (in words): 5-FU 16 µM and 24 µM, MER, AMP, PIP 10, 50, 100 µg/mL, BenP, FLU 5, 25, 50 µg/mL. Background: Tetrazolium assays rely on reduction of a dye to a coloured formazan, in cell work by metabolically active cells.

Data set [2] relates to HCT-116 cells. Description: Cell cycle distribution, propidium iodide staining. It counts as cell-based, human. The following applies: for percentage of cells in G0/G1 / percentage of cells in G2/M / percentage of cells in Pre G1 / percentage of cells in S: CFT 100 µg/mL, CFP 50 µg/mL, 5-FU 8 µM, alone or combined, mean ± SE. How it is done: Propidium iodide (PI) staining was used to evaluate the effect of the different treatments on the cell cycle. […] Fixed cells, which were washed with PBS and incubated at 37 °C for 1 h with 50 µl RNase (1 mg/ml) (Sigma Aldrich, Germany), were stained for 15 minutes with PI (Molecular Probes, Eugene, Oregon, USA).

Data set [3] relates to DLD-1 cells. Description: Caspase-3/7 activity assay. It counts as cell-based, human. Particulars: 48 h and 72 h, 5-FU 16 µM, CFT 100 µg/ml. The method, then: (§1) Caspase-3/7 activity was measured 48 h and 72 h post-treatment according to the manufacturer's protocol (Caspase-Glo-3/7 Assay, Promega Corp, Madison, WI, USA). Briefly, equal volume from treated cells and caspase-3/7 mixture were incubated at room temperature for 3 h and the luminescence was measured by a microplate reader.
DLD-1 cells were treated with CFT (100 µg/ml) or 5-Fluorouracil (16 µM). Caspase-3/7 activity was measured 48 h and 72 h post-treatment according to the manufacturer's protocol (Caspase-Glo-3/7 Assay, Promega Corp, Madison, WI, USA). Briefly, equal volume from treated cells and caspase 3/7 mixture were incubated at room temperature for 3 h and the luminescence was measured by a microplate reader.

Data set [4] has as its system DLD-1 cells. The data set is described as follows: MTT metabolic activity assay. Particulars: 48 h post-treatment, 5-Fluorouracil 16µM. In kind it is cell-based, human. How it is done:
MTT assay was used to assess the proliferation rate of HCT-116 and DLD-1 cells. In this assay the ability of metabolically active cells to convert tetrazolium salt into a blue formazan product is measured. The absorption of the dissolved formazan was quantified at 540 nm by an ELISA reader (Bio-Rad iMark Microplate Reader).
Cells were plated at 2^∗104cells/ml in 96-well plates and incubated overnight. […] Metabolic activity of the cells was studied using the MTT assay that measures the ability of metabolically active cells to convert tetrazolium salt into a blue formazan product, the absorbance of which is recorded at 540 nm by an ELISA reader (Bio-Rad iMark Microplate Reader).

Data set [5] deals with Caco-2 cells. The data set is described as follows: MTT metabolic activity assay. It counts as cell-based, human. The following applies: Homo sapiens, 24 h post-treatment, 5-Fluorouracil 4µM, read-out: inhibition of proliferation (metabolic activity). How it is done:
(§2) Cells were plated at 2^∗104cells/ml in 96-well plates and incubated overnight. The following day, cells were treated in triplicate with Ceftazdime or 5-fluorouracil for 24-48 h, depending on the cell line used. Metabolic activity of the cells was studied using the MTT assay that measures the ability of metabolically active cells to convert tetrazolium salt into a blue formazan product, the absorbance of which is recorded at 540 nm by an ELISA reader (Bio-Rad iMark Microplate Reader).

Data set [6] has as its system DLD-1 cells. Description: Cell cycle distribution, propidium iodide staining. It counts as cell-based, human. The following applies: CFT 100 µg/mL, CFP 50 µg/mL, 5-FU 16 µM, alone or combined, mean ± SE. The method, then: Propidium iodide (PI) staining was used to evaluate the effect of the different treatments on the cell cycle. […] 48 h and 72 h post-treatment, collected cells were fixed with ice-cold ethanol (70%) and stored at - 20 °C for at least 2 h. Fixed cells, which were washed with PBS and incubated at 37 °C for 1 h with 50 µl RNase (1 mg/ml) (Sigma Aldrich, Germany), were stained for 15 minutes with PI (Molecular Probes, Eugene, Oregon, USA). Cell cycle was monitored using BD FACSDiva™ and the percentage of cells in the different phases of the cell cycle (pre-Gi, G0/G1, S, and G2/M) phases was determined using BD FACSDiva™ Software.
Propidium iodide (PI) staining was used to evaluate the effect of the different treatments (Ceftazidime (100 µg/ml) or 5-Fluorouracil (16 µM)) on the cell cycle profile of DLD-1 cells. Briefly, DLD-1 cells were plated at 5^∗104/ml and treated for 48 h and 72 h. Collected cells were fixed with ice-cold ethanol (70%) and stored at -20°C for at least 2 h. Fixed cells, which were washed with PBS and incubated at 37°C for 1 h with 50 µl RNase (1 mg/ml) (Sigma Aldrich, Germany), were stained for 15 minutes with PI (Molecular Probes, Eugene, Oregon, USA). Cell cycle was monitored using BD FACSDiva™ and the percentage of cells in the different phases of the cell cycle (pre-Gi, G0/G1, S, and G2/M) phases was determined using BD FACSDiva™ Software.

Data set [7] relates to RAW 264.7 cells. Description: MTT metabolic activity assay on macrophages. It counts as cell-based, murine. Particulars: RAW 264.7. How it is done: as §2
Data set [8] deals with HCT-116 cells. Description: Antibiotics' uptake by the cells, LC-MS/MS. Particulars: for Concentration of CFP, Lysate / Concentration of CFP, Supernatant: HCT-116 cells, CFP 50 µg/ml alone or + 5-FU 8 µM. How it is done: (§3) This step was repeated three times and cell homogenate were vortexed at high-speed prior extraction. 40 µl from each supernatant and cell suspension were combined with 200 µl of internal standard working solution prepared in ice-cold methanol. Samples were then centrifuged and 100 µl of the supernatant were diluted with 400 µl water in glass vials prior analysis with LC-/MS/MS.

Data set [9] concerns DLD-1 cells. Description: Antibiotics' uptake by the cells, LC-MS/MS. Particulars: for Concentration of CFP, Lysate / Concentration of CFP, Supernatant: CFP 50 µg/ml alone or + 5-FU 16 µM. The method, then: as §3
Data set [10] has as its system HCT-116 cells. Description: Caspase-3/7 activity assay. In kind it is cell-based, human. The following applies: combined with 5-FU 8 µM, 48 and 72h, CFT 100 µg/ml, CFP 50 µg/ml. The method, then: as §1
Data set [11] can be described thus: Stability in media, LC-MS/MS. It counts as physicochemical. The following applies: antibiotic alone (CFP 50 µg/mL, CFT 100 µg/mL). The method, then:
B) CFT (100 µg/ml) ± 5-FU (8 µM and 16 µM). P value (a) (between antibiotic alone and 5-FU (8 µM)); P value (b) (between antibiotic alone and 5-FU (16 µM)), n = 3.

As to `CC1(C)S[C@@H]2[C@H](NC(=O)[C@H](N)c3ccccc3)C(=O)N2[C@H]1C(=O)O` [AMP, ampicillin], the “effect of combination with 5-FU on the inhibition of metabolic activity induced by 5-FU (in words)” value in data set [1] is “does not affect the inhibition”.

With `C[C@@H](O)[C@H]1C(=O)N2C(C(=O)O)=C(S[C@@H]3CN[C@H](C(=O)N(C)C)C3)[C@H](C)[C@H]12` [MER, meropenem], the “effect of combination with 5-FU on the inhibition of metabolic activity induced by 5-FU (in words)” value in data set [1] is listed as “does not affect the inhibition”.

Regarding `O=c1[nH]cc(F)c(=O)[nH]1` [5-FU, 5-fluorouracil], in data set [2] (48 h), the “increase in the percentage of cells in the pre-G1 phase vs. control” value came out at 3 fold, the “percentage of cells in G0/G1” value is recorded as 48.4 ± 2.3^(a) %, the “percentage of cells in G2/M” value worked out at 22.3 ± 2.9% and the “percentage of cells in Pre G1” value is 16.9 ± 2.5^(a) %. Also, in [2] (48 h), the “percentage of cells in S” value is reported as 10.6 ± 1.0%. Moreover, in data set [2] (72 h), the “increase in the percentage of cells in the pre-G1 phase vs. control” value was 8.2 fold, the “percentage of cells in G0/G1” value is reported as 39.0 ± 9.5^(a) %, the “percentage of cells in G2/M” value is 16.4 ± 2.4^(a) % and the “percentage of cells in Pre G1” value is recorded as 36.7 ± 11.7^(a) %. Further, in data set [2] (72 h), the “percentage of cells in S” value is recorded as 6.6 ± 0.7%. Moreover, the “caspase 3/7 activity / apoptosis induction (in words)” value in data set [3] is “did not induce caspase 3/7 activity”. The “inhibitory effect vs. control untreated cells (metabolic activity)” value in data set [4] was found to be 18%. The inhibition at 4 µM in [5] turned out to be 22%. Besides, in data set [6] (48 h), the “percentage of cells in G0/G1” value is recorded as 49.3 ± 4.4%, the “percentage of cells in G2/M” value is recorded as 10.3 ± 1.7^(a) %, the “percentage of cells in Pre G1” value stood at 6.3 ± 2.3% and the “percentage of cells in S” value is on record as 32.0 ± 6.1^(a) %. Further, in data set [6] (72 h), the “percentage of cells in G0/G1” value stood at 69.4 ± 5.0%, the “percentage of cells in G2/M” value is given as 5.4 ± 2.7^(a) %, the “percentage of cells in Pre G1” value was determined as 4.7 ± 0.3% and the “percentage of cells in S” value was 20.1 ± 2.9^(a) %. In data set [7] (24 h of treatment), the “decrease of metabolic activity” value amounted to 80%. Also, the “metabolic activity of macrophages (in words)” value in [7] (48 h post-treatment) is on record as “sustained up to 48 h”.

`CCN1CCN(C(=O)N[C@@H](C(=O)N[C@@H]2C(=O)N3[C@@H]2SC(C)(C)[C@@H]3C(=O)O)c2ccccc2)C(=O)C1=O` [PIP, piperacillin]: in data set [1], the “effect of combination with 5-FU on the inhibition of metabolic activity induced by 5-FU (in words)” value is recorded as “does not affect the inhibition”.

For the molecule `CO/N=C(\C(=O)N[C@@H]1C(=O)N2C(C(=O)[O-])=C(C[N+]3(C)CCCC3)CS[C@H]12)c1csc(N)n1` [CFP, cefepime], the “Concentration of CFP, Lysate” value is 0.018 ± 0.004 in data set [8] (2 h); 0.022 ± 0.005 in data set [8] (4 h); 0.050 ± 0.003 in data set [8] (6 h); 0.032 ± 0.002 in data set [8] (8 h); 0.012 ± 0.005 in data set [9] (2 h); 0.010 ± 0.0002 in data set [9] (4 h). Moreover, the “Concentration of CFP, Lysate” value in data set [9] (6 h) came to 0.014 ± 0.0001; in data set [9] (8 h), 0.012 ± 0.001. Besides, the “Concentration of CFP, Supernatant” value was 44.1 and 44.100 ± 3.395 in data set [8] (2 h); 34.500 ± 3.818 in data set [8] (4 h); 35.250 ± 1.485 in data set [8] (6 h); 35.9 and 35.850 ± 1.909 in data set [8] (8 h); 50.000 ± 1.697 in data set [9] (2 h); 54.187 ± 0.849 in data set [9] (4 h). The “Concentration of CFP, Supernatant” value stood at 45.813 ± 3.818 in [9] (6 h) and 47.947 ± 12.644 in data set [9] (8 h). Moreover, in data set [8] (up to 8h), the “average uptake in HCT-116 cells compared to DLD-1 cells” value is reported as 2 folds. In addition, the “average uptake by the cells” value in [9] (up to 8h) is reported as “around 0.02%”. Moreover, in data set [10], the “effect on 5-FU-induced apoptosis (caspase 3/7, in words)” value is “effect was seen only 72h post-treatment”. Besides, the “percentage of cells in G0/G1” value in data set [2] (48 h) is 51.7 ± 2.8%; in data set [2] (72 h) it was 53.8 ± 3.6^(a) %; in data set [6] (48 h), 48.8 ± 4.0%; in data set [6] (72 h), 59.6 ± 3.6^(a) %. Besides, the “percentage of cells in G2/M” value in data set [2] (48 h) is 24.6 ± 0.9%; in data set [2] (72 h) it was 23.6 ± 2.2^(a) %; in data set [6] (48 h), 18.4 ± 4.3%; in data set [6] (72 h), 17.0 ± 3.5%. For the same molecule, the “percentage of cells in Pre G1” value in data set [2] (48 h) was 4.9 ± 1.6%; in data set [2] (72 h), 9.8% and 9.3 ± 2.9^(a) %; in [6] (48 h), 2.6 ± 0.3%; in data set [6] (72 h), 9.5 ± 4.1^(a) %. The “percentage of cells in S” value in data set [2] (48 h) is given as 13.6 ± 1.6%; in data set [2] (72 h), 7.4 ± 1.4%; in data set [6] (48 h), 29.2 ± 8.1%; in [6] (72 h), 13.1 ± 3.3^(a) %. The “Stability test, level in media” value came out at 49.9 ± 9.5 in data set [11] (2h in media) and 48.8 ± 5.3 in data set [11] (8h in media). In data set [1] (48 h post-treatment, CFT 100 µg/mL, CFP 50 µg/mL combined with 5-FU), the “effect on 5-FU's effect on metabolic activity (in words)” value is given as “antagonized 5-FU's effect”.

With `CC1(C)S[C@@H]2[C@H](NC(=O)Cc3ccccc3)C(=O)N2[C@H]1C(=O)O` [BenP, benzylpenicillin], in [1], the “effect of combination with 5-FU on the inhibition of metabolic activity induced by 5-FU (in words)” value is on record as “does not affect the inhibition”.

On to `Cc1onc(-c2c(F)cccc2Cl)c1C(=O)N[C@@H]1C(=O)N2[C@@H]1SC(C)(C)[C@@H]2C(=O)O` [FLU, flucloxacillin], for which the “effect of combination with 5-FU on the inhibition of metabolic activity induced by 5-FU (in words)” value in [1] was “does not affect the inhibition”.
